Measurements reported in US8222267B2 (priority 2009, dated 2012).

Columns and labels:
[1] = Open-label pilot study, adverse events / safety of MOXDUO, PERCOCET and preceding IV PCA morphine
[2] = Pharmacokinetics after single oral co-administered dose of morphine and oxycodone (about 3:2) in healthy subjects; details: for AUC0-∞ (dose adjusted) / Cmax: healthy subjects, n = 18
Description: Values for the observed maximum plasma concentration (Cmax), total area under the plasma concentration-time curve (AUC0-∞) and the time to maximum plasma concentration (Tmax) were determined.

Row | SMILES | Overall incidence of nausea, pruritus, constipation, and dizziness ([1]; during IV PCA morphine use vs same time period after first dose of study medication) | Subjects with moderate or severe nausea ([1]; while on IV PCA morphine, before study medication) [%] | AUC0-∞ (dose adjusted) ([2]; single oral co-administered dose morphine/oxycodone 3 mg/2 mg) [ng·h/mL/mg] | AUC0-∞ (dose adjusted) ([2]; single oral co-administered dose morphine/oxycodone 12 mg/8 mg) [ng·h/mL/mg] | Tmax ([2]; human, plasma, po) [h] | Cmax ([2]; human, plasma, po, single oral co-administered dose morphine/oxycodone 3 mg/2 mg) [ng/mL] | Cmax ([2]; human, plasma, po, single oral co-administered dose morphine/oxycodone 12 mg/8 mg) [ng/mL] | Dose proportionality of plasma levels ([2]; single-dose combination, 3 mg/2 mg to 12 mg/8 mg dose range, dose-normalized Cmax and AUC0-∞ within 80-125% limits)
1 | CN1CC[C@]23c4c5ccc(O)c4O[C@H]2[C@@H](O)C=C[C@H]3[C@H]1C5 [Morphine, morphine] | higher | 25 |  |  |  |  |  | 
2 | COc1ccc2c3c1O[C@H]1C(=O)CC[C@@]4(O)[C@@H](C2)N(C)CC[C@]314 [Oxycodone, oxycodone] |  |  | 9.62 | 9.62 | 1 | 4.9 | 17.8 | increase linearly in a dose-proportionate manner
